According to US20260062432A1 (REXPHARMTECH CO., LTD, priority 2022, published 2026):
Values after ≈ are worked out from the molar mass of the structure shown. Where a name gives a salt, the structure may show the parent alone.

How the values were obtained:
[1] = Stability test under harsh conditions (60° C.±2° C.), HPLC analysis; format: physicochemical; settings: for purity (HPLC), Day 3 / purity (HPLC), Day 7 / purity (HPLC), Day 14 / purity (HPLC), Day 21 / purity (HPLC), Initial: harsh conditions 60° C.±2° C.; for purity change: stability test for 21 days under harsh conditions
Method: A stability test of a pharmaceutical means to confirm the stability of constant quality over time under certain conditions to set the storage method and shelf life of the pharmaceutical. Therefore, an expiration date of a product is set by setting appropriate specifications and evaluating conformance to the specifications by evaluating significant changes based on a prescribed analytical method.
Specifically, a stability test was conducted under harsh conditions (60° C.±2° C.) according to the ICH guidelines, and an analysis was performed by high-performance liquid chromatography (HPLC) analysis.

[2] = Solubility test (saturated solution, HPLC); format: physicochemical
Method: After diluting a reference solution with 50% acetonitrile, a calibration curve (range: […]) was prepared by USP compendial HPLC analysis, and the concentration of the saturated solution was obtained from a first-order function of the prepared calibration curve.

[3] = tested on: p-ERK, p-AKT, and NR2B in primary cultured hippocampal neurons; test: Immunoblot test: activation of neuroplastic factors in hippocampal cells; format: cell-based, SD rats (Sprague-Dawley rats); settings: 1 or 3 μg/ml, 10 minutes, FIG. 5
Method: All cells used in the experiment were primary cultured hippocampal neurons. Hippocampal neurons were isolated from embryos of SD rats (Sprague-Dawley rats, Samtaco Korea) on gestation Day 18 and Day 19. A hippocampal nerve tissue of fetal rats was physically separated by using a dissecting microscope and then placed in HBSS (Hank's Balanced Salt Solution) supplemented with 0.25% trypsin and treated at 37° C. for 10 minutes. After washing the hippocampal nerve tissue with HBSS, single cells were isolated by carefully pipetting with a pipette. The isolated cells were cultured by filling a 60 mm cell culture dish, coated with Poly-L-lysine (0.5 mg/ml) in advance, with Neurobasal/B27 medium (0.5 mM L-glutamine, 25 μM glutamate, 25 μM 2-mercaptoethanol, 100 U/mL penicillin, 100 μg/ml streptomycin) at 5% CO2 and 37° C. The medium was exchanged on cell culture Day 4 and Day 11, and the cells were used in the experiment on culture Day 14. To confirm p-ERK, p-AKT, and NR2B in cells, the medium of primary cultured hippocampal neurons cultured for 14 days was changed to a B-27-free medium at least 1 hour before drug treatment. […] The disrupted cell solution was quantified according to a protein quantification method, and then for protein analysis (immunoblotting), the protein was subjected to electrophoresis on 8% and 10% SDS-polyacrylamide gel. The membrane was subjected to a reaction at room temperature for 1 hour by adding 5% skim milk. A primary antibody was treated with tris buffered saline at a ratio of 1:1000, subjected to a reaction at 4° C. for 24 hours, and then washed three times with TBST (25 mM Tris-Hcl, 140 mM NaCl, 0.1% Tween 20, pH 7.5). After that, a secondary antibody was subjected to a reaction with Anti-Rabbit or Anti-Mouse antibody (HRP-linked) in 3% skim milk at a ratio of 1:5000 for 1 hour. The coupled antibody complex was confirmed by using West Femto Maximum Sensitivity Substrate (Thermo), and the results are shown in FIG. 5.

[4] = versus thiamine hydrochloride or thiamine nitrate; cited from earlier work
[5] = tested on: mouse model of Alzheimer's disease; settings: cited from earlier work
[6] = tested on: patients with mild cognitive impairment or Alzheimer's disease; settings: cited from earlier work

Compound	purity (HPLC), Day 3 [1]	purity (HPLC), Day 7 [1]	purity (HPLC), Day 14 [1]	purity (HPLC), Day 21 [1]	purity (HPLC), Initial [1]	purity change [1] [%]	Solubility ([2]; Purified water) [µg/mL]	Solubility ([2]; pH 1.2) [µg/mL]	Solubility ([2]; pH 4.0) [µg/mL]	Solubility ([2]; pH 6.8) [µg/mL]	solubility (in words) ([2]; purified water and all solutions at pH 1.2, pH 4.0, and pH 6.8)	level of NR2B [3]	level of phosphorylated Akt [3]	level of phosphorylated ERK [3]	solubility at 1 h ([2]; purified water and solutions at pH 1.2, pH 4.0 and pH 6.8, aqueous buffer, thermodynamic from solid, purified water and solutions at pH 1.2, pH 4.0 and pH 6.8, read-out: solubility (range over all media)) [µg/mL]	bioavailability higher than thiamine hydrochloride or thiamine nitrate [4]	level of phosphorylated tau [5]	number of amyloid plaques [5]	spatial memory [5]	rate of functional decline [6]
C/C(=C(\CCOP(=O)(O)O)SC(=O)c1ccccc1)N(C=O)Cc1cnc(C)nc1N [Example 1, benfotiamine choline salt]	99.2	99.1	99.0	98.2	99.3	1.1	652100	898400	690200	820000	very high solubility	effectively increased	effectively increased	effectively increased	–	–	–	–	–	–
C/C(=C(\CCOP(=O)(O)O)SC(=O)c1ccccc1)N(C=O)Cc1cnc(C)nc1N [Comparative Example, benfotiamine]	99.1	98.6	97.5	97.0	99.5	2.5	3000 (≈ 6.43 mM)	5600 (≈ 12 mM)	3100 (≈ 6.65 mM)	6600 (≈ 14.1 mM)	–	–	–	–	3000 to 6600 (≈ 6.43 to 14.1 mM)	about 3.6 times	reduces	reduces	improves spatial memory in a dose-dependent manner	effective and safe in slowing down the rate of functional decline
